Data published in patent US6162810A, “Inadone and tetralone compounds for inhibiting cell proliferation” (The Regents of the University of California, priority 1998, dated 2000).

What was measured:
[1] = tested on: CEM WT, CEM AB9228, MOLT-4, Jurkat, NALL-1, WI-L2, K562, and HL-60 cells; assay: Cytotoxicity to various proliferating cell lines (average); assay type: cell-based, human; details: Homo sapiens, average TC50 over various proliferating cell lines; read-out: TC50 (the source's name)
Procedure: (§1) (B) Similarly, compounds of the invention were tested for their ability to kill CEM WT, CEM AB9228, MOLT-4, Jurkat, NALL-1, WI-L2, K562, and HL-60 cells.

[2] = tested on: proliferating cells; assay: Ability of further compounds to kill proliferating cells (average); assay type: cell-based; details: average TC50, proliferating cells; read-out: TC50 (the source's name)
Procedure: as §1
(C) Proceeding as described above, further compounds were tested for their ability to kill proliferating cells.

[3] = tested on: human Jurkat T cell leukemia cells; assay: Cytotoxicity to human Jurkat T cell leukemia cells, 3 days culture; assay type: cell-based; details: 72 h, concentration necessary to kill 50% of the cells, three days, OD570/650, read-out: TC50 (the source's name)
Procedure: (A) The compounds prepared in Example 1 above were tested for biological activity by culturing human Jurkat T cell leukemia cells for three days at an initial density of 10^5 cells/ml in RPMI 1640+10% FBS (fetal bovine serum). Compounds of the invention were added, and the concentration necessary to kill 50% (TC50) of the cells was determined by OD570/650.

[4] = tested on: tubulin; assay: Inhibition of [3H]vinblastine binding to tubulin; parameters: species or system bovine; details: single experiment
Procedure: The TB compounds of the invention (as represented by TB compound IK-178), are nearly as potent as the strong tubulin assembly inhibitor, combretastatin A-4 (CS-A4). In particular, the GI^50 inhibitory concentration of CS-A4 was 1.2±0.03 μM (n=4), while that of TB compound IK-178 was 1.7±0.1 μM (n=3).

[5] = tested on: tubulin; assay: Inhibition of tubulin assembly; assay type: biochemical, bovine; details: 10 μM tubulin, 20 min incubation, 30° C.; read-out: GI50 inhibitory concentration (tubulin assembly)
Procedure: To evaluate the effects of the TB compounds of the invention on tubulin, bovine brain tubulin (2.2 mg/ml) was incubated in PEM80 (80 mM K-PIPES, 1 mM MgCl2, 1 mM EGTA) containing 10% glycerol and 2 mM GTP for 30 minutes at 37° C. in the presence or absence of 20 μg/ml nocodazole, 1 mM paclitaxel, or TB compound no. IK-178 at various concentrations. Tubulin polymer was resolved from monomer by sedimentation through a cushion of 60% glycerol in PEM80 at 70,000 rpm for 30 min at 37° C. in a Beckman TLA100 rotor. A fraction of the supernatant was removed for analysis, the cushion washed and then aspirated, and the pellet resuspended in SDS-PAGE sample buffer. Equal proportions of the supernatant and the pellet were then resolved by SDS-PAGE and tubulin visualized by staining with Coomassie blue.
The quantitative assessment of drug inhibition of tubulin polymerization and evaluation of inhibition of [^3 H]colchicine binding to tubulin were then performed. […] Samples were placed on ice and GTP (0.4 mM) was added. Reaction mixtures were transferred to 0° C. cuvettes in Gilford 250 spectrophotometers, baselines were establishes/d, and the temperature was jumped to 30° C. with electronic temperature controllers (about 60 sec). The IC^50 was defined as the drug concentration required to inhibit extent of assembly after a 20 min incubation. […]

[6] = tested on: KB-GRC-1 and MV522/Q6; assay: MTT proliferation assay of mdr1 overexpressing transfectomas; assay type: cell-based, human; details: 72 h
[7] = tested on: MES-SA; assay: Growth inhibition of MES-SA (wild type); assay type: cell-based; details: Homo sapiens, ±1 SD, n>5
[8] = tested on: HL-60/ADR and MDF-7/ADR cells; assay: MTT assay, visual comparison of cells with and without MDR (FIGS. 1 and 2); assay type: cell-based, human; details: 3 days
[9] = tested on: HL-60; assay: Growth inhibition of HL-60 (wild type); assay type: cell-based; details: Homo sapiens, ±1 SD, n>5
[10] = tested on: KB-GRC-1; assay: Growth inhibition of KB-GRC-1 (MDR); assay type: cell-based; details: Homo sapiens, MDR1, ±1 SD, n>5
[11] = tested on: MES-SA/DX5; assay: Growth inhibition of MES-SA/DX5 (MDR); assay type: cell-based; details: Homo sapiens, ±1 SD, n>5
[12] = tested on: MV522/Q6; assay: Growth inhibition of MV522/Q6 (MDR); assay type: cell-based; details: Homo sapiens, ±1 SD, n>5
[13] = tested on: MV522; assay: Growth inhibition of MV522 (wild type); assay type: cell-based; details: Homo sapiens, ±1 SD, n>5
[14] = tested on: CEM; assay: Growth inhibition of CEM (wild type); assay type: cell-based; details: Homo sapiens, CCRF-CEM, ±1 SD, n>5
[15] = tested on: KB-3-1; assay: Growth inhibition of KB-3-1 (wild type); assay type: cell-based; details: Homo sapiens, ±1 SD, n>5
[16] = tested on: CEM/VLB100; assay: Growth inhibition of CEM/VLB100 (MDR); assay type: cell-based; details: Homo sapiens, ±1 SD, n>5
[17] = tested on: MDA3-1/gp170; assay: Growth inhibition of MDA3-1/gp170 (MDR); assay type: cell-based; details: Homo sapiens, MDR1, ±1 SD, n>5
[18] = tested on: MCF-7/ADR; assay: Growth inhibition of MCF-7/ADR (MDR); assay type: cell-based; details: Homo sapiens, NCI/ADR-RES, ±1 SD, n>5
[19] = tested on: HL-60/ADR; assay: Growth inhibition of HL-60/ADR (MDR); assay type: cell-based; details: Homo sapiens, HL60/ADR, ±1 SD, n>5
[20] = tested on: MDA-MB-321; assay: Growth inhibition of MDA-MB-321 (wild type); assay type: cell-based; details: Homo sapiens, ±1 SD, n>5
[21] = tested on: MCF-7; assay: Growth inhibition of MCF-7 (wild type); assay type: cell-based; details: Homo sapiens, MCF7, ±1 SD, n>5
[22] = tested on: HL-60/ADR cells; assay: Apoptosis of HL-60/ADR cells (FACS); assay type: cell-based, human
Procedure: FACS analysis was performed to determine the influence of the TB compounds of the invention on growth cycling of cells (the analysis was performed on harvested cells, fixed in ice-cold 70% ethanol solution, then treated with 100 μg/ml of RNAse A and stained with 50 μg/ml propidium iodide for 1 h at 37° C. DNA content of the cells was analyzed by flow cytometry (Becton Dickinson FACScalibur), and the cell cycle distribution was calculated with the program ModFit LT 2.0 (Verity Software)).
First, the stage at which the TB compounds of the invention arrest growth of HL-60 and HL-60/ADR cells was determined by FACS analysis and caspase-3 activation as described above.

[23] = tested on: caspase-3 in HL-60 cells; assay: Caspase-3 activation in HL-60 cells; assay type: cell-based, human; details: HL-60 cells

| Compound | CC50 [1] [µM] | CC50 [2] [µM] | CC50 [3] [µM] | further results |
| --- | --- | --- | --- | --- |
| COc1cc2c(cc1OC)C(=O)/C(=C/c1cc(Cl)cc(Cl)c1)C2 [5,6-dimethoxy-2-(3',5'-dichlorophenylmethylene)-1-indanone] | 0.75 | 2 | 0.75 |  |
| COc1cc(C=C2Cc3cc(OC)c(OC)cc3C2=NO)cc(OC)c1 [5,6-dimethoxy-2-(3',5'-dimethoxyphenylmethylene)-1-hydroximinioindane] | 0.8 |  | 0.8 |  |
| COc1cc(C=C2Cc3cc(OC)c(OC)cc3C2O)cc(OC)c1 (centres unmarked) [5,6-dimethoxy-2-(3',5'-dimethoxyphenylmethylene)-1-hydroxyindane] |  |  | 0.75 |  |
| COc1cc(C=C2Cc3cc(OC)c(OC)cc3C2=O)cc(OC)c1 [5,6-dimethoxy-2-(3',5'-dimethoxyphenylmethylene)-1-indanone] | 0.75 | 2 | 0.75 |  |
| COc1cc2c(cc1OC)C(=O)C(=Cc1cc(C)cc(C)c1)C2 [5,6-dimethoxy-2-(3',5'-dimethylphenylmethylene)-1-indanone] | 0.075 | 0.081 | 0.075 |  |
| COc1cc2c(c(NC(=O)C(=O)O)c1OC)C(=O)C(=Cc1cc(C)c(O)c(C)c1)C2 [5,6-dimethoxy-7-oxalylamino-2-(3',5'-dimethyl-4'-hydroxyphenylmethylene)-1-indanone] | 0.004 | 0.15 |  |  |
| COc1cc2c(cc1OC)C(=O)C(=Cc1cccc(OC)c1OC)CC2 [6,7-dimethoxy-2-(2',3'-dimethoxyphenylmethylene)-1-tetralone] | > 50 | > 50 |  |  |
| COc1ccc(C=C2CCc3cc(OC)c(OC)cc3C2=O)cc1OC [6,7-dimethoxy-2-(3',4'-dimethoxyphenylmethylene)-1-tetralone] | > 50 | > 50 |  |  |
| COc1cc(/C=C2\CCc3cc(OC)c(OC)cc3C2=O)cc(OC)c1 [6,7-dimethoxy-2-(3',5'-dimethoxyphenylmethylene)-1-tetralone] | 4 |  | 5 |  |
| COc1cc2c(cc1OC)C(=O)C(=Cc1ccc(O)cc1)CC2 [6,7-dimethoxy-2-(4'-hydroxyphenylmethylene)-1-tetralone] | 30 | 30 |  |  |
| COc1ccc(C=C2CCc3cc(OC)c(OC)cc3C2=O)cc1 [6,7-dimethoxy-2-(4'-methoxyphenylmethylene)-1-tetralone] | > 50 | > 50 |  |  |
| COc1ccc(/C=C\c2cc(OC)c(OC)c(OC)c2)cc1O [CS-A4, combretastatin A-4, reference compound] |  |  |  | inhibition of [3H]vinblastine binding to tubulin [4]: Neither agent inhibited; GI50 [5]: 1.2 ± 0.03 µM |
| CC(=O)O[C@H]1C(=O)[C@@]2(C)[C@H]([C@H](OC(=O)c3ccccc3)[C@]3(O)C[C@H](OC(=O)[C@H](O)[C@@H](NC(=O)c4ccccc4)c4ccccc4)C(C)=C1C3(C)C)[C@]1(OC(C)=O)CO[C@@H]1C[C@@H]2O [Paclitaxel, paclitaxel, reference compound] |  |  |  | sensitivity of transfectomas overexpressing mdr1 [6]: resistant; GI50 [7]: < 0.001 µM; sensitivity with acquisition of MDR [8]: sensitivity to paclitaxel was lost; GI50 [9]: < 0.001 µM; GI50 [10]: > 1 µM; GI50 [11]: > 1 µM; GI50 [12]: 0.358 ± 0.008 µM; GI50 [13]: 0.015 ± 0.004 µM; GI50 [14]: < 0.001 µM; GI50 [15]: 0.007 ± 0.003 µM; GI50 [16]: 0.606 ± 0.02 µM; GI50 [17]: > 1 µM; GI50 [18]: > 10 µM; GI50 [19]: > 1 µM; GI50 [20]: 0.05 ± 0.002 µM; GI50 [21]: 0.05 ± 0.006 µM |
| COc1cc2c(c(OC)c1OC)-c1ccc(OC)c(=O)cc1[C@@H](NC(C)=O)CC2 [colchicine, reference compound] |  |  |  | apoptosis [22]: did not induce the apoptosis; caspase-3 activity [23]: did not activate caspase-3 |
